Data taken from patent publication US20250170089A1, “ANTIMICROBIAL AMINO ESTERS” (THE HONG KONG POLYTECHNIC UNIVERSITY, priority 2023, published 2025).

Assays:
[1] = tested on: Candida albicans; assay: MIC against fungi (Candida albicans); format: cell-based
[2] = tested on: methicillin-resistant Staphylococcus aureus (MRSA); assay: MIC against methicillin-resistant Staphylococcus aureus; format: cell-based
[3] = tested on: microbes; assay: Rapid bactericidal test (shaking method, ASTM E2149 13a); format: cell-based; conditions: Ala12 diluted to 10 mg/mL with phosphate buffer, contact time 10 mins
Protocol: The Ala12 was diluted to 10 mg/mL with phosphate buffer. The shaking method (see the ASTM standard E2149 13a 2015) was used to detect their antibacterial activity, wherein the PBS group was used as a blank control. The contact time of bacteria treated with Ala12 is 10 mins.

[4] = Skin irritation according to ISO 10993-10:2010; conditions: concentration as high as 3.9 mg/mL
[5] = Skin sensitization according to ISO 10993-10:2010; conditions: concentration as high as 3.9 mg/mL
[6] = Dynamic light scattering (DLS) and zeta-potential of self-assembled nanoparticles; format: physicochemical
Description: The dynamic light scattering (DLS) and zeta-potential indicate that […] assembles into nanoparticles with an average size of around 50-200 nm (FIG. 5) and the surface potential of the generated nanoparticle can be +2.15 mV, which means the nanoparticle is positive charged and the hydrophilic -NH2 groups are probably distributed on the outer surfaces.

With CCCCCCCCCCCCOC(=O)C(C)N (stereo not shown) [Ala12] the MIC [1] was 390 μg/m, the MIC [2] was 390 μg/m and the “time within which the amino ester kills microbes” value [3] was ≤ 10 min. For the same compound, the skin irritation [4] was “completely free”, the skin sensitization [5] was “completely free” and the “surface potential of the generated nanoparticle (zeta-potential)” value [6] was “+2.15 mV”. The “average size of nanoparticles” value ([6]; DLS, FIG. 5) was 50-200 nm.
